Results as given in US20050113405A1, “Methods of treating rheumatoid arthritis using NF-kB inhibitors” (Wyeth, priority 2003, published 2005).

How the values were obtained:
[1] = test system: Lewis rats with adjuvant-induced arthritis; experiment: Adjuvant-induced arthritis in Lewis rats, histological scoring of tarsal joints (Mankin and synovitis scores); assay type: in vivo, rat; details: for Tidemark Integrity (0-1) / Cartilage Cells (0-3) / Cartilage Structure (0-6) / Fibroplasia (0-3) / Inflammatory Cells (0-3) / Pannus (0-2) / Saffranin-O/Fast Green Staining (0-4) / Synovial Structure (0-3) / Total Mankin Score (0-14) / Total Synovitis Score (0-10): tarsal joints; for Cartilage Cells (0-3) / Cartilage Structure (0-6) / Fibroplasia (0-3) / Inflammatory Cells (0-3) / Pannus (0-2) / Saffranin-O/Fast Green Staining (0-4) / Synovial Structure (0-3) / Total Mankin Score (0-14) / Total Synovitis Score (0-10): mean ± SD
Protocol: Statistical analysis was performed using Abacus Concepts Super ANOVA. (Abacus Concepts, Inc., Berkeley, Calif.). All of the parameters of interest were subjected to Analysis of Variance with Duncan's new multiple range post hoc testing between groups. Data are expressed throughout as mean±standard deviation (SD), and differences were deemed significant if p<0.05.
At the end of the study the rats were euthanized with CO2, hindlimbs were removed at necropsy and fixed in 10% buffered formalin, and the tarsal joints were decalcified and embedded in paraffin. Histologic sections will be stained with Hematoxylin and Eosin or Saffranin O—Fast Green stain.
Slides will be coded so that the examiner will be blinded to the treatment groups. […] Articular cartilage and bone will be evaluated using Mankin's histological grading system (method described by Mankin H J, Dorfman, H:Lippieo L. L. Zarins. 1971. Biochemical and metabolic abnormalities in articular cartilage from osteoarthritic human hip. See J. Bone Joint Surg (AM) 53A:152-153) (Table 6).

[2] = test system: Lewis rats with adjuvant-induced arthritis; experiment: Adjuvant-induced arthritis in Lewis rats, daily joint scores (hindpaw erythema and swelling); assay type: in vivo, rat
BALB/c mice = experiment: Collagen induced arthritis model (anti-type II collagen mAbs plus LPS), hind paw volume; assay type: in vivo, mouse; details: 2.5 mg/kg orally once daily; over the course of the experiment
Protocol: Compounds are evaluated in BALB/c mice, 6-8 weeks of age, in which arthritis is induced by monoclonal antibodies raised against type II collagen, plus lipopolysaccharide (LPS). The animals were administered intravenously with a combination of 4 different mAbs totaling 4 mg/mouse on day 0, and followed by intravenous 25 μg of LPS 72 hours later (day 3). From day 3, one hour after LPS application, tested compounds are give orally once daily for 15 days. For each animal, increase in volume of both hind paws is measured using a plethysmometer with water cell (12 mm diameter) on days 0, 5, 7, 10, 14 and 17. Percent inhibition of increase in volume is calculated. Reduction of edema in the hind paws by 30% or more is considered significant.

[3] = 0.1 mg/kg orally for 2 weeks from day 8 after CFA
[4] = 0.3 mg/kg orally for 2 weeks from day 8 after CFA
[5] = 1 mg/kg orally for 2 weeks from day 8 after CFA

## C[C@@H]1c2cc(F)ccc2-c2ccccc2N1S(=O)(=O)c1ccc(O)cc1 (stereo in doubt) [Example 3, 4-[(8-Fluoro-6-methylphenanthridin-5(6H)-yl)sulfonyl]phenol]
[1]; [3]
  Tidemark Integrity (0-1): 0
  Cartilage Cells (0-3): 1.92 ± 0.21
  Cartilage Structure (0-6): 2.33 ± 0.68
  Fibroplasia (0-3): 1.75 ± 0.42
  Inflammatory Cells (0-3): 1.83 ± 0.52
  Pannus (0-2): 1.50 ± 0.84
  Saffranin-O/Fast Green Staining (0-4): 2.42 ± 0.67
  Synovial Structure (0-3): 2.33 ± 0.75
  Total Mankin Score (0-14): 6.83 ± 1.25
  Total Synovitis Score (0-10): 7.42 ± 2.25
[1]; [4]
  Tidemark Integrity (0-1): 0
  Cartilage Cells (0-3): 1.50 ± 0.32
  Cartilage Structure (0-6): 1.75 ± 0.42
  Fibroplasia (0-3): 1.67 ± 0.26*t
  Inflammatory Cells (0-3): 1.25 ± 0.27
  Pannus (0-2): 0.50 ± 0.84
  Saffranin-O/Fast Green Staining (0-4): 2.17 ± 0.26
  Synovial Structure (0-3): 1.58 ± 0.38
  Total Mankin Score (0-14): 5.42 ± 0.74*t
  Total Synovitis Score (0-10): 5.00 ± 1.30*#t
[1]; [5]
  Tidemark Integrity (0-1): 0
  Cartilage Cells (0-3): 1.17 ± 0.26*t
  Cartilage Structure (0-6): 1.25 ± 0.27
  Fibroplasia (0-3): 1.33 ± 0.41*t
  Inflammatory Cells (0-3): 1.17 ± 0.26
  Pannus (0-2): 0.25 ± 0.42
  Saffranin-O/Fast Green Staining (0-4): 2.17 ± 0.26
  Synovial Structure (0-3): 1.42 ± 0.38
  Total Mankin Score (0-14): 4.58 ± 0.74*t
  Total Synovitis Score (0-10): 4.17 ± 1.21*#t
[1]; all concentrations tested (down to 0.1 mg/kg), oral
  overall synovitis and cartilage scores: significantly improved
[2]; Day 8, 0.1 mg/kg orally each day from Day 8 after adjuvant
  joint scores (paw swelling and redness, maximal score per day 12): 11.3
[2]; Day 8, 0.3 mg/kg orally each day from Day 8 after adjuvant
  joint scores (paw swelling and redness, maximal score per day 12): 11.5
[2]; Day 8, 1 mg/kg orally each day from Day 8 after adjuvant
  joint scores (paw swelling and redness, maximal score per day 12): 11.3
[2]; Day 9, 0.1 mg/kg orally each day from Day 8 after adjuvant
  joint scores (paw swelling and redness, maximal score per day 12): 10.7
[2]; Day 9, 0.3 mg/kg orally each day from Day 8 after adjuvant
  joint scores (paw swelling and redness, maximal score per day 12): 9.8
[2]; Day 9, 1 mg/kg orally each day from Day 8 after adjuvant
  joint scores (paw swelling and redness, maximal score per day 12): 8.8
[2]; Day 10, 0.1 mg/kg orally each day from Day 8 after adjuvant
  joint scores (paw swelling and redness, maximal score per day 12): 9.3
[2]; Day 10, 0.3 mg/kg orally each day from Day 8 after adjuvant
  joint scores (paw swelling and redness, maximal score per day 12): 7.3
[2]; Day 10, 1 mg/kg orally each day from Day 8 after adjuvant
  joint scores (paw swelling and redness, maximal score per day 12): 7
[2]; Day 11, 0.1 mg/kg orally each day from Day 8 after adjuvant
  joint scores (paw swelling and redness, maximal score per day 12): 9.7
[2]; Day 11, 0.3 mg/kg orally each day from Day 8 after adjuvant
  joint scores (paw swelling and redness, maximal score per day 12): 7
[2]; Day 11, 1 mg/kg orally each day from Day 8 after adjuvant
  joint scores (paw swelling and redness, maximal score per day 12): 6
[2]; Day 12, 0.1 mg/kg orally each day from Day 8 after adjuvant
  joint scores (paw swelling and redness, maximal score per day 12): 10
[2]; Day 12, 0.3 mg/kg orally each day from Day 8 after adjuvant
  joint scores (paw swelling and redness, maximal score per day 12): 6.7
[2]; Day 12, 1 mg/kg orally each day from Day 8 after adjuvant
  joint scores (paw swelling and redness, maximal score per day 12): 5
[2]; Day 13, 0.1 mg/kg orally each day from Day 8 after adjuvant
  joint scores (paw swelling and redness, maximal score per day 12): 4.2
[2]; Day 13, 0.3 mg/kg orally each day from Day 8 after adjuvant
  joint scores (paw swelling and redness, maximal score per day 12): 3.7
[2]; Day 13, 1 mg/kg orally each day from Day 8 after adjuvant
  joint scores (paw swelling and redness, maximal score per day 12): 1.7
[2]; Day 14, 0.1 mg/kg orally each day from Day 8 after adjuvant
  joint scores (paw swelling and redness, maximal score per day 12): 3.5
[2]; Day 14, 0.3 mg/kg orally each day from Day 8 after adjuvant
  joint scores (paw swelling and redness, maximal score per day 12): 3
[2]; Day 14, 1 mg/kg orally each day from Day 8 after adjuvant
  joint scores (paw swelling and redness, maximal score per day 12): 1.3
[2]; Day 15, 0.1 mg/kg orally each day from Day 8 after adjuvant
  joint scores (paw swelling and redness, maximal score per day 12): 3.5
[2]; Day 15, 0.3 mg/kg orally each day from Day 8 after adjuvant
  joint scores (paw swelling and redness, maximal score per day 12): 3.7
[2]; Day 15, 1 mg/kg orally each day from Day 8 after adjuvant
  joint scores (paw swelling and redness, maximal score per day 12): 1.3
[2]; Day 16, 0.1 mg/kg orally each day from Day 8 after adjuvant
  joint scores (paw swelling and redness, maximal score per day 12): 3.3
[2]; Day 16, 0.3 mg/kg orally each day from Day 8 after adjuvant
  joint scores (paw swelling and redness, maximal score per day 12): 2.3
[2]; Day 16, 1 mg/kg orally each day from Day 8 after adjuvant
  joint scores (paw swelling and redness, maximal score per day 12): 1.2
[2]; Day 17, 0.1 mg/kg orally each day from Day 8 after adjuvant
  joint scores (paw swelling and redness, maximal score per day 12): 3.3
[2]; Day 17, 0.3 mg/kg orally each day from Day 8 after adjuvant
  joint scores (paw swelling and redness, maximal score per day 12): 2.3
[2]; Day 17, 1 mg/kg orally each day from Day 8 after adjuvant
  joint scores (paw swelling and redness, maximal score per day 12): 1.2
[2]; Day 18, 0.1 mg/kg orally each day from Day 8 after adjuvant
  joint scores (paw swelling and redness, maximal score per day 12): 3.3
[2]; Day 18, 0.3 mg/kg orally each day from Day 8 after adjuvant
  joint scores (paw swelling and redness, maximal score per day 12): 2.3
[2]; Day 18, 1 mg/kg orally each day from Day 8 after adjuvant
  joint scores (paw swelling and redness, maximal score per day 12): 1.2
[2]; Day 19, 0.1 mg/kg orally each day from Day 8 after adjuvant
  joint scores (paw swelling and redness, maximal score per day 12): 3
[2]; Day 19, 0.3 mg/kg orally each day from Day 8 after adjuvant
  joint scores (paw swelling and redness, maximal score per day 12): 2
[2]; Day 19, 1 mg/kg orally each day from Day 8 after adjuvant
  joint scores (paw swelling and redness, maximal score per day 12): 1.2
[2]; Day 20, 0.1 mg/kg orally each day from Day 8 after adjuvant
  joint scores (paw swelling and redness, maximal score per day 12): 2.8
[2]; Day 20, 0.3 mg/kg orally each day from Day 8 after adjuvant
  joint scores (paw swelling and redness, maximal score per day 12): 2
[2]; Day 20, 1 mg/kg orally each day from Day 8 after adjuvant
  joint scores (paw swelling and redness, maximal score per day 12): 1.2
[2]; Day 21, 0.1 mg/kg orally each day from Day 8 after adjuvant
  joint scores (paw swelling and redness, maximal score per day 12): 2.5
[2]; Day 21, 0.3 mg/kg orally each day from Day 8 after adjuvant
  joint scores (paw swelling and redness, maximal score per day 12): 1.7
[2]; Day 21, 1 mg/kg orally each day from Day 8 after adjuvant
  joint scores (paw swelling and redness, maximal score per day 12): 1.2
[2]; Day 22, 0.1 mg/kg orally each day from Day 8 after adjuvant
  joint scores (paw swelling and redness, maximal score per day 12): 2.5
[2]; Day 22, 0.3 mg/kg orally each day from Day 8 after adjuvant
  joint scores (paw swelling and redness, maximal score per day 12): 1.7
[2]; Day 22, 1 mg/kg orally each day from Day 8 after adjuvant
  joint scores (paw swelling and redness, maximal score per day 12): 1.2
[2]; Day 23, 0.1 mg/kg orally each day from Day 8 after adjuvant
  joint scores (paw swelling and redness, maximal score per day 12): 1.2
[2]; Day 23, 0.3 mg/kg orally each day from Day 8 after adjuvant
  joint scores (paw swelling and redness, maximal score per day 12): 1
[2]; Day 23, 1 mg/kg orally each day from Day 8 after adjuvant
  joint scores (paw swelling and redness, maximal score per day 12): 1
[2]; Day 24, 0.1 mg/kg orally each day from Day 8 after adjuvant
  joint scores (paw swelling and redness, maximal score per day 12): 1.3
[2]; Day 24, 0.3 mg/kg orally each day from Day 8 after adjuvant
  joint scores (paw swelling and redness, maximal score per day 12): 1.3
[2]; Day 24, 1 mg/kg orally each day from Day 8 after adjuvant
  joint scores (paw swelling and redness, maximal score per day 12): 0.8
BALB/c mice
  inhibition of paw edema (increase in hind paw volume): > 30%
other
  melting point: 188 °C
